These results are taken from publication PMC9346113, “Therapeutic impact of BET inhibitor BI 894999 treatment: backtranslation from the clinic” (British Journal of Cancer, 2022).

Molecules are shown by their SMILES. Where two headings read alike, the source gives them in different places.

One data set concerns Ty-82. Nature of the data set: Combination viability assay, Bliss analysis (CGI), Ty-82. The class given is cell-based, human. Particulars: partner in combination with BI 894999 (10–20 nM). The protocol:
(§1) Viability assays were performed on 96-well flat-bottom microtiter plates and incubated with Alamar Blue solution (Invitrogen, Carlsbad, US-CA). The effects of drug combinations were analysed using the Bliss Independence Model.

The test system of the next data set is Ty-82 BRD4-NUT. Put plainly: Cell proliferation assay (Alamar readout), Ty-82. The class given is cell-based, human. To be noted: read-out: geomean GI50. The protocol: (§2) The NUT Carcinoma cell line Ty-82 was purchased from JCRB Japan No. 1330 and cultivated in RPMI 1640 supplemented with 10% fetal calf serum (FCS). The NC cell lines 10–15, 14169 and 10326 were in-licensed from Christopher French, Brigham & Womens Hospital, Boston, and were cultivated in DMEM supplemented with glutamax and 10% FCS.
as §1
(§3) Dose response curves (96h cell proliferation assay - Alamar readout) on four NC cell lines with BET inhibitor BI 894999. Yellow bar: readout t zero (before adding of compound). Green bar: DMSO control (max proliferation).
(§4) Dose response curves (96h cell proliferation assay - Alamar readout) on four NC cell lines with multiple BET inhibitors.

The subject of a further data set is 10–15 BRD4-NUT. Put plainly: Cell proliferation assay (Alamar readout), 10–15. The class given is cell-based, human. Particulars: 96h, read-out: geomean GI50. As for the experimental part:
as §2, §1, §3, §4

For the next data set, the system named is 14169 BRD4-NUT. Put plainly: Cell proliferation assay (Alamar readout), 14169. The class given is cell-based, human. To be noted: 96h, read-out: geomean GI50. The protocol:
as §2, §1, §3, §4

The test system of a further data set is 10326 BRD3-NUT. Nature of the data set: Cell proliferation assay (Alamar readout), 10326. The class given is cell-based, human. Particulars: 96h, read-out: geomean GI50. As for the experimental part: as §2, §1, §3, §4
The next data set relates to T1, BRD4-NUT.
T1 construct: endogenous in cells; host or cells: Ty-82 NUT carcinoma cells
Nature of the data set: Immunofluorescence staining of NUT megadomains, Ty-82. Format: cell-based, human. Particulars: Ty-82; 30 min treatment. As for the experimental part: Cells were seeded on four-well chamber slides (Merck Millipore, #PEZGS0416). After treatment, cells were fixed with 4% PFA (16% Solution, Thermo Fischer #28908 Paraformaldehyde, diluted 1:4 in PBS), permeabilised with 0,1% TX-100 (Sigma #93443, diluted in PBS). After blocking in blocking buffer (10% normal goat serum, Sigma #G9023–10ml, diluted in blocking solution: 2% BSA/PBS, Sigma #A7284–50ml, diluted 1:15 in PBS), the first antibody mAB rabbit anti-NUT 1:1000 (clone C52B1, Cell Signaling #3625) in blocking buffer was added, followed by incubation with the 2nd antibody goat anti-rabbit Alexa*488 1:1000 (Thermo Fisher, #A-11008) in blocking buffer in the dark. Cells were mounted with ProLong Gold Antifade Mountant with DAPI (Thermo Fisher, #P36931) and analysed using a Laser scanning microscope (LSM700). […]
Immunofluorescence staining of NUT megadomains on NC Ty-82 treated with BI with BI 894999 30nM for 1 h, then changed to 10 nM or 5 nM or 2.5 nM or control for 24 h.

For data set [1], the system named is Ty-82 xenograft (BRD4-NUT). Nature of the data set: Ty-82 NC xenograft model. The class given is in vivo, mice. An excerpt:
(§5) Mice were group-housed (8–10 mice per cage) under pathogen-free and controlled environmental conditions (21 ± 1.5 C temperature, 55 ± 10% humidity) in an AAALAC accredited facility and handled according to the institutional, governmental and European Union guidelines (Austrian Animal Protection Laws, GV-SOLAS and FELASA guidelines). Animal studies were approved by the internal ethics committee and the local government committee. Mice were 6- to 8-week-old female CIEA NOG purchased from Taconic, Denmark (NOD.Cg-Prkdc^scid Il2rg^tm1Sug/JicTac). 5 × 10^6 NC tumour cells were injected subcutaneously into the right flank of the mice (1 site per mouse). Mice were randomly distributed between the treatment and the vehicle control when tumours were well established and had reached volumes of 100–150 mm^3. Compounds were suspended in 0.5% Natrosol and administered once daily intra-gastral by gavage needle. Tumour diameters were measured three times a week with a calliper. […] Within each subtopic the p-values of the efficacy parameters were adjusted for multiple comparisons according to Bonferroni–Holm. The p-values of the tolerability parameter remained unadjusted in order not to overlook a possible adverse effect. The level of significance was fixed at α = 5%. An adjusted p-value of less than 0.05 was considered to show a statistically significant difference between the groups. The statistical evaluation was prepared using the software Graph Pad Prism.

In data set [2] the test system is 10–15 xenograft (BRD4-NUT). Nature of the data set: 10–15 NC xenograft model. Format: in vivo, mice.
Excerpt: as §5

Data set [3] relates to 10326 xenograft (BRD3-NUT). Put plainly: 10326 NC xenograft model. Format: in vivo.
Excerpt: as §5

Data set [4] can be described thus: PK analysis in mouse plasma. The class given is in vivo. To be noted: CIEA NOG (NOD.Cg-Prkdc^scid Il2rg^tm1Sug/JicTac), oral, mice, 5 mg/kg CCS1477, exposure defined as sufficient for a synergistic effect, read-out: plasma concentration at 6 h after compound application. An excerpt:
PK analysis in mouse plasma. Oral treatment at the indicated doses. Sampling at the indicated timepoints.

Another data set deals with T2, BRD3-NUT.
T2 construct: endogenous in cells; host or cells: 10326 NUT carcinoma cells, in culture (A11) and as subcutaneous xenograft tumours in NOG mice (A26)
Nature of the data set: IHC of 10326 xenograft tumours, NUT protein. The class given is in vivo, mice. Particulars: day 21, CCS1477 at either dose (5 or 10 mg/kg). As for the experimental part: Immunohistochemistry was performed on formalin-fixed, paraffin-embedded tumour tissue using antibodies against human Ki67(Cell Signaling #9027, 1:400 dilution), anti-human mitochondria (Abcam ab92824, 1:1000 dilution) and against endogenous NUT protein (Cell Signaling #3625, 1:50 dilution) used to detect NUT fusion proteins. Digital images of whole tissue sections were acquired using a Leica SCN400 histology scanner (Leica Microsystems). Ki67-positive index was evaluated using Halo Software V. 3.2 (Indica lab). Regions of interest (ROIs) within the tissue sections were first identified using Halo Software via machine learning technology across pathological samples and tissue control, within these ROIs, nuclei were detected and classified as positive or negative based on IHC staining thresholds.
BRD3-NUT 10326 tumor sections after treatment with 2 mg/kg BI 894999, 5 mg/kg or 10 mg/kg CCS1477 and the combination of both. IHC staining for NUT protein.

A further data set concerns 10–15 xenografts. Also noted: method as in PMID 32371576. Particulars: mice bearing 10–15 xenografts; tumour regression not described; cited from earlier work.
The conditions of data set [5]: mice; 1 mg/kg romidepsin; BI 894999 at clinically relevant doses; data not shown.

For `CNC(=O)Nc1ccc2c(c1)CC[C@@]21OC(=O)N(CC(=O)N(Cc2ccc(F)cc2)[C@@H](C)C(F)(F)F)C1=O` [A485], the “cell growth inhibition >100% reached at clinically achievable concentrations” value (from here on “cell growth inhibition >100% reached”) in the data set on Ty-82 is recorded as “not”.

For `CO[C@H]1CC[C@H](n2c([C@@H]3CCCC(=O)N3c3ccc(F)c(F)c3)nc3cc(-c4c(C)noc4C)ccc32)CC1` [CCS1477], the GI50 in the data set with Ty-82 BRD4-NUT (Homo sapiens, TY82, 96h) was found to be 0.0385 µM; with 10–15 BRD4-NUT (Homo sapiens), 0.0329 µM; in the data set with 14169 BRD4-NUT (Homo sapiens), 0.0629 µM; in the data set with 10326 BRD3-NUT (Homo sapiens) it was 0.0227 µM. In addition, the “concentration at which BRD4-NUT detaches from chromatin / is re-distributed” value in the data set with BRD4-NUT is listed as over 1000 nM. For the same compound, the “cell growth inhibition >100% reached” value with Ty-82 is “accomplished”. The “TGI (tumour growth inhibition)” value is given as 29% in data set [1] (5 mg/kg CCS1477 p.o. daily) and 11% in data set [1] (10 mg/kg CCS1477 p.o. daily). Besides, the TGI is listed as 24% in data set [2] (5 mg/kg CCS1477), 30% in data set [2] (10 mg/kg CCS1477), 65% in [3] (5 mg/kg CCS1477) and 88% in data set [3] (10 mg/kg CCS1477). Also, in data set [4], the concentration at 6 h was in the range of 200 to 300 nM. Besides, the “loss of speckled megadomain localisation (NUT staining)” value with BRD3-NUT is given as “not seen”.

On to `CNC(=O)N1CCc2c(c(N3CCCc4cc(-c5cnn(C)c5)c(C(F)F)cc43)nn2C2CCOCC2)C1` [GNE-781], for which the “cell growth inhibition >100% reached” value in the data set on Ty-82 is recorded as “accomplished”.

With `CCNC(=O)C[C@@H]1N=C(c2ccc(Cl)cc2)c2cc(OC)ccc2-n2c(C)nnc21` [GSK525762], the GI50 in the data set with Ty-82 BRD4-NUT (Homo sapiens, TY82, 96h) is 0.154 µM; in the data set with 10–15 BRD4-NUT (Homo sapiens) it was 0.113 µM; in the data set with 14169 BRD4-NUT (Homo sapiens) it was 0.055 µM; in the data set with 10326 BRD3-NUT (Homo sapiens), 0.0436 µM.

In the case of `Cc1sc2c(c1C)C(c1ccc(Cl)cc1)=N[C@@H](CC(=O)OC(C)(C)C)c1nnc(C)n1-2` [JQ1], the GI50 was 0.11 µM in the data set on Ty-82 BRD4-NUT (96h), 0.0844 µM with 10–15 BRD4-NUT, 0.0492 µM with 14169 BRD4-NUT and 0.0432 µM in the data set on 10326 BRD3-NUT.

Turning to `Cc1cc(-c2ccc3nc(C4CCOCC4)n(CCOC(F)(F)F)c3c2)cn(C)c1=O` [NEO2734], the GI50 in the data set on Ty-82 BRD4-NUT (96h) is 0.0265 µM; in the data set on 10–15 BRD4-NUT it was 0.0226 µM; in the data set with 14169 BRD4-NUT, 0.0204 µM; with 10326 BRD3-NUT, 0.0112 µM. Also, in the data set with BRD4-NUT, the “concentration at which BRD4-NUT detaches from chromatin / is re-distributed” value is on record as over 100 nM. In addition, in the data set on 10–15 xenografts, the “efficacy compared to BETi alone” value was “greater growth inhibition and significantly improved survival”.

On to `Cc1[nH]c2ccccc2c1CCNCc1ccc(/C=C/C(=O)NO)cc1` [Panobinostat], for which, in the data set on Ty-82, the “cell growth inhibition >100% reached” value is recorded as “accomplished”.

Turning to `C/C=C1\NC(=O)[C@H]2CSSCC/C=C/[C@H](CC(=O)N[C@H](C(C)C)C(=O)N2)OC(=O)[C@H](C(C)C)NC1=O` [Romidepsin], in the data set on Ty-82, the “cell growth inhibition >100% reached” value is “accomplished”. For the same compound, the “benefit when added to BI 894999” value in data set [5] is on record as “did not show benefit”.

The term GI50 denotes the concentration giving 50% growth inhibition. As usually defined, the TGI is how far tumour growth fell short of that in controls. Low values mean a weaker effect on the tumour, high ones a stronger effect on the tumour.
